Experimental data reported in patent US11878049B1, “Mitapivat therapy and modulators of cytochrome P450” (Agios Pharmaceuticals, Inc., priority 2019, dated 2024).
Structures can show the parent of a compound that is named as a salt.

What was measured:
Assay type in all cases: in vitro ADME
CYP2C19 [1] = molecular target: T1, CYP2C19 (Homo sapiens, UniProt P33261); assay: Metabolism-dependent CYP inhibition
CYP3A4 = CYP3A4 (Homo sapiens, UniProt P08684); assay: Metabolism-dependent CYP inhibition
P-gp [2] = molecular target: T2, P-gp (Homo sapiens, UniProt P08183); assay: Transporter substrate assessment
P-gp [3] = molecular target: T2, P-gp; assay: Transporter inhibition
[4] = molecular target: T3, breast cancer resistance protein (BCRP) (Homo sapiens, UniProt Q9UNQ0); assay: Transporter substrate assessment
T3 sequence (Q9UNQ0 1-655): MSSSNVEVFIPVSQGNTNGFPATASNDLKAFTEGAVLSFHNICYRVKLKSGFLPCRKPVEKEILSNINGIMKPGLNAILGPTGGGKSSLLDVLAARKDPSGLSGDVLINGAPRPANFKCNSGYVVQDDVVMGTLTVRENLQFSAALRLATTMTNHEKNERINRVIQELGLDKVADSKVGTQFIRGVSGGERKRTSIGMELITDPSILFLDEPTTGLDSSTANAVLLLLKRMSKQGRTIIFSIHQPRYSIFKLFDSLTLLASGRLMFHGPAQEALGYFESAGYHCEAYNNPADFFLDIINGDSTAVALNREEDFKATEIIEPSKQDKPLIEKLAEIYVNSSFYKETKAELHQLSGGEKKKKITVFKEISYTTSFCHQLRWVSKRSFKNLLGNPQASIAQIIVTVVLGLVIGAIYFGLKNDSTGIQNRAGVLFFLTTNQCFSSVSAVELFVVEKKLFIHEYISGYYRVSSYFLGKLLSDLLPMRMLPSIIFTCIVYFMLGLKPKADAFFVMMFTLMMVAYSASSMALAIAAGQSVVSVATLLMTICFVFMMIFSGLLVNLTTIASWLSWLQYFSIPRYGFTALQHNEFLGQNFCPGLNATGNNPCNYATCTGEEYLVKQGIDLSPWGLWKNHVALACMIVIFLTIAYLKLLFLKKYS

[5] = molecular target: T3, breast cancer resistance protein (BCRP); assay: Transporter inhibition
human CYP2B6 = assay: CYP induction
human CYP3A4 = assay: CYP induction
CYP2C8 = CYP2C8 (Homo sapiens, UniProt P10632); assay: CYP enzyme inhibition
CYP2C9 = CYP2C9 (Homo sapiens, UniProt P11712); assay: CYP enzyme inhibition
CYP2C19 [6] = molecular target: T1, CYP2C19; assay: CYP enzyme inhibition
CYP2D6 = CYP2D6 (Homo sapiens, UniProt P10635); assay: CYP enzyme inhibition
CYP3A4/5 = assay: CYP enzyme inhibition (testosterone 6β-hydroxylation)
[7] = molecular target: bile salts export pump (BSEP) (Homo sapiens, UniProt O95342); assay: Transporter inhibition
[8] = molecular target: organic anion transporting polypeptide (OATP)1B1 (Homo sapiens, UniProt Q9Y6L6); assay: Transporter inhibition
[9] = molecular target: organic anion transporter (OAT)3 (Homo sapiens, UniProt Q8TCC7); assay: Transporter inhibition
[10] = molecular target: organic cation transporter (OCT)2 (Homo sapiens, UniProt O15244); assay: Transporter inhibition
[11] = molecular target: uridine-5′-diphospho-glucuronosyltransferase (UGT) 1A3 (Homo sapiens, UniProt P35503); assay: UGT inhibition
[12] = molecular target: uridine-5′-diphospho-glucuronosyltransferase (UGT) 1A4 (Homo sapiens, UniProt P22310); assay: UGT inhibition
[13] = molecular target: uridine-5′-diphospho-glucuronosyltransferase (UGT) 1A9 (Homo sapiens, UniProt O60656); assay: UGT inhibition
[14] = molecular target: multidrug resistance-associated protein (MRP)2 (Homo sapiens, UniProt Q92887); assay: Transporter inhibition
MRP3 = MRP3 (Homo sapiens, UniProt O15438); assay: Transporter inhibition
OATP1B3 = OATP1B3 (Homo sapiens, UniProt Q9NPD5); assay: Transporter inhibition
OAT1 = OAT1 (Homo sapiens, UniProt Q4U2R8); assay: Transporter inhibition

T2 sequence (P08183 whole entry): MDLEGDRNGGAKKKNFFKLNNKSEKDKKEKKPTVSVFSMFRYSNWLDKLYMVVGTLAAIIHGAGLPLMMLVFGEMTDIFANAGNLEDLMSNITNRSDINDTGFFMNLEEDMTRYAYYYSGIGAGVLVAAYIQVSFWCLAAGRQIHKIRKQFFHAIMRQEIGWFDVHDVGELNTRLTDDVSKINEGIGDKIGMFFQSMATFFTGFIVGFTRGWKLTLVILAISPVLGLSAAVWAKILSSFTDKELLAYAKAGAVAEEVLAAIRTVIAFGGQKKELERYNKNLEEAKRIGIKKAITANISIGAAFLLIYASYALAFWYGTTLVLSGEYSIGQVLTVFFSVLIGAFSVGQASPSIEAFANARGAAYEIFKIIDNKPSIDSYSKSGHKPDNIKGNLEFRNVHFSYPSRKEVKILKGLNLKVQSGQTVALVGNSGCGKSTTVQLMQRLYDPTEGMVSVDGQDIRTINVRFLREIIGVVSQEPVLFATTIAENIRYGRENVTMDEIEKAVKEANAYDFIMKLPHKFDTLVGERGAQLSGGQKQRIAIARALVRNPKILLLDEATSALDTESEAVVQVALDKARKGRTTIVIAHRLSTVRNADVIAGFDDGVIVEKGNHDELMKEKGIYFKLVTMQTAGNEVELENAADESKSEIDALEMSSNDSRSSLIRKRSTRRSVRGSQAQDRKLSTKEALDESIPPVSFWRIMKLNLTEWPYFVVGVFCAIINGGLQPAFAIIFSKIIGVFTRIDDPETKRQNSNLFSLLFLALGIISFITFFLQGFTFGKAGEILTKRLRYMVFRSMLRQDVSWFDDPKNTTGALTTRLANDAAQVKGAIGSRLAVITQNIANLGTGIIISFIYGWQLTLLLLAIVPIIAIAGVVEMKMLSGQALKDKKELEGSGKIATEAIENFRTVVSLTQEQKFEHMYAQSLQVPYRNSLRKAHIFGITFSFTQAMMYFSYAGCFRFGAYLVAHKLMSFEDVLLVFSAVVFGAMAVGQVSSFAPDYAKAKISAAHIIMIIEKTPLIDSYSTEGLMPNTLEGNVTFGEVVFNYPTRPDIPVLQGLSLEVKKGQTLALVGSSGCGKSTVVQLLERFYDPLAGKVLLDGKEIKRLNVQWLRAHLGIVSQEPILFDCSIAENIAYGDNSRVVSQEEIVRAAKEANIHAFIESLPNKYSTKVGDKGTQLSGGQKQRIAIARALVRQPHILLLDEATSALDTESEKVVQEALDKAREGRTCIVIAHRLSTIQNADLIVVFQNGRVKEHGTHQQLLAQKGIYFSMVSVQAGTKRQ
T1 sequence (P33261 whole entry): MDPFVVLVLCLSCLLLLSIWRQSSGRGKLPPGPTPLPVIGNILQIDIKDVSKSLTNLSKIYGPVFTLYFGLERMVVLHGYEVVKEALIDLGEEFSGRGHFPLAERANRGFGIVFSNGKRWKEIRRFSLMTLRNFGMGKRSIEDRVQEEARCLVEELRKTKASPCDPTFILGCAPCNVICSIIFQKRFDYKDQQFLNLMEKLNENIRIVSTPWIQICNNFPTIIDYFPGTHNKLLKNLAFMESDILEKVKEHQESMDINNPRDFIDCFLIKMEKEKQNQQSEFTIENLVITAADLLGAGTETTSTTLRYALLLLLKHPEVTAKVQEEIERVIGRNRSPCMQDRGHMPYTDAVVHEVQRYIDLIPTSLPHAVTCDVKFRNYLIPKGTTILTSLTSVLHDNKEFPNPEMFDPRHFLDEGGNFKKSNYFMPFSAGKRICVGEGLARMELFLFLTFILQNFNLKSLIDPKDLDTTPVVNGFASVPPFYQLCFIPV
CYP3A4, sequence (P08684 whole entry): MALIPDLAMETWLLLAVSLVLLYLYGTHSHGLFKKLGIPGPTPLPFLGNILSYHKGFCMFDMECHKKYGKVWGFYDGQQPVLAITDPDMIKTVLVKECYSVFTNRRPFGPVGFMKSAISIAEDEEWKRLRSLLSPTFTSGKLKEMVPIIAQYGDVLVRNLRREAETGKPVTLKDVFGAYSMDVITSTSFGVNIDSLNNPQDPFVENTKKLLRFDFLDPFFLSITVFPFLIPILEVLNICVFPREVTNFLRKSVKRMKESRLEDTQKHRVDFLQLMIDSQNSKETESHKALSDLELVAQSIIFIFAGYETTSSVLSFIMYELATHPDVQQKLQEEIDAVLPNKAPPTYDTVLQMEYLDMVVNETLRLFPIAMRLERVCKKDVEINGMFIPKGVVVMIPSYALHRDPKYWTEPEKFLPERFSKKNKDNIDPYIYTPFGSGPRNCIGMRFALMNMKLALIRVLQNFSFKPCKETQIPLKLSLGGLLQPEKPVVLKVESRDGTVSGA
multidrug resistance-associated protein (MRP)2, sequence (Q92887 whole entry): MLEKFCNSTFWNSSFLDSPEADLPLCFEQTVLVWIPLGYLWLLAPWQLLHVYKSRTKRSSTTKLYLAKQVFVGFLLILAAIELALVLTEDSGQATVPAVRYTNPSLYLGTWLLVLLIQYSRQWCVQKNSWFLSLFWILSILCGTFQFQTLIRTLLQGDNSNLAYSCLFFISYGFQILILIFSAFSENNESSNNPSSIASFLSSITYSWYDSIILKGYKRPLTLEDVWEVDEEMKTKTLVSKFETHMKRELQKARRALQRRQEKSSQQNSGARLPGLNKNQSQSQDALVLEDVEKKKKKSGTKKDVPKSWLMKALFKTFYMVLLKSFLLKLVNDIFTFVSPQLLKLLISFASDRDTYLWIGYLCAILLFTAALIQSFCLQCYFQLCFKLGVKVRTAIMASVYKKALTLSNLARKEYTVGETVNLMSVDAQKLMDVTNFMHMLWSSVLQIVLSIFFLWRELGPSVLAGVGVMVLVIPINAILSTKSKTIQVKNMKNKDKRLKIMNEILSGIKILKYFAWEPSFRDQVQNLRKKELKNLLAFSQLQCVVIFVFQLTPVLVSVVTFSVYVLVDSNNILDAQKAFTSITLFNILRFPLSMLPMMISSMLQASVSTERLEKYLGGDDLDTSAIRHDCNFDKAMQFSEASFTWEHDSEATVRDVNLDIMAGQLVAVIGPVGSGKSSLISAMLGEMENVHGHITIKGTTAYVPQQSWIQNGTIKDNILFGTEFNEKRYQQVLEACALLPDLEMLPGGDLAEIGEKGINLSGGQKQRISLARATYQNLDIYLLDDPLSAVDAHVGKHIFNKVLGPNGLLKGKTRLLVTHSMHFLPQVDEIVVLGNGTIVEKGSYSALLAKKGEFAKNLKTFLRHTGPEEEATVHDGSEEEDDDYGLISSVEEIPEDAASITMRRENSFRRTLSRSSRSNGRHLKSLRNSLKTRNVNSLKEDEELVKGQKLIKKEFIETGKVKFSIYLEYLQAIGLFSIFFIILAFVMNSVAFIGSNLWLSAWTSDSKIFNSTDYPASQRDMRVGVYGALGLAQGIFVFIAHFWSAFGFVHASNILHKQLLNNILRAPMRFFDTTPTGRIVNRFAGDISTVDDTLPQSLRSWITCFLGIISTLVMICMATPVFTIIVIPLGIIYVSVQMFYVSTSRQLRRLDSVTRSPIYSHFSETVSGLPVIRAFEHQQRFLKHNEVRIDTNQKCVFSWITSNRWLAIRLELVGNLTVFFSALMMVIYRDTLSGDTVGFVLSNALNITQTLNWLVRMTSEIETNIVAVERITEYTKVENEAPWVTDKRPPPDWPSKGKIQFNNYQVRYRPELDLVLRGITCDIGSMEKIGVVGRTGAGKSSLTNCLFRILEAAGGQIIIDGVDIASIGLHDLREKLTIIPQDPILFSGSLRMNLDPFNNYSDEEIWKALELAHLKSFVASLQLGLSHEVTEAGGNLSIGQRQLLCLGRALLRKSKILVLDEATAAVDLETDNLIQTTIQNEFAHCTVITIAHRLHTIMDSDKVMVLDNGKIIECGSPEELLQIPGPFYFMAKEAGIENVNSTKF
uridine-5′-diphospho-glucuronosyltransferase (UGT) 1A4, sequence (P22310 29-534): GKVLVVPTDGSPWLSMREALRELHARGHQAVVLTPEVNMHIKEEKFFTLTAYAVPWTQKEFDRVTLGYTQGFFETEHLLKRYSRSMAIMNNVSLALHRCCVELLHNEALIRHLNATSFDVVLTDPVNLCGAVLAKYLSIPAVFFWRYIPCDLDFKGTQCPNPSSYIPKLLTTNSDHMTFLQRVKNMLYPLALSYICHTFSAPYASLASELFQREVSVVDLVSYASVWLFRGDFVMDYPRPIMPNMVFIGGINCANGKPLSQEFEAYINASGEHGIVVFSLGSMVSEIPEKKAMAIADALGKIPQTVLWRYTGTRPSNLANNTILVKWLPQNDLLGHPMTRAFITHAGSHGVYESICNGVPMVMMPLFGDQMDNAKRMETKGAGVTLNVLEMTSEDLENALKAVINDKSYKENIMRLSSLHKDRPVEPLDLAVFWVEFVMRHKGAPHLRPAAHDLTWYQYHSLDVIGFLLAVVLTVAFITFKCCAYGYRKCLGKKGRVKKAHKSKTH
CYP2D6, sequence (P10635 whole entry): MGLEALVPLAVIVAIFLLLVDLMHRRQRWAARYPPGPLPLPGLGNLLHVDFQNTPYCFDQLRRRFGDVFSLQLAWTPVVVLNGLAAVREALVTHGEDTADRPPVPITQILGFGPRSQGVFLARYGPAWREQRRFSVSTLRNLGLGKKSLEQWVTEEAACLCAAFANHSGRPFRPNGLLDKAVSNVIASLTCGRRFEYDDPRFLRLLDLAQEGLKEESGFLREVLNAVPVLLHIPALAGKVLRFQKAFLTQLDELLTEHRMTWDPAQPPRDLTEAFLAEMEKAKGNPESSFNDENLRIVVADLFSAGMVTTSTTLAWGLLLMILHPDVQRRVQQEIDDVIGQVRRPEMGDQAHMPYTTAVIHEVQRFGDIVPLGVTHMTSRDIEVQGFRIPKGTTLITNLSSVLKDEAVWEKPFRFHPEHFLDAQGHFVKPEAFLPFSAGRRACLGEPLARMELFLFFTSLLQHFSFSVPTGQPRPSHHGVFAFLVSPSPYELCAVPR

SMILES: O=C(c1ccc(NS(=O)(=O)c2cccc3cccnc23)cc1)N1CCN(CC2CC2)CC1 [Mitapivat sulfate]
- Metabolism-dependent inhibition of CYP2C19 (evidence found), reversibility (CYP2C19 [1]): largely reversible
- Metabolism-dependent inhibition of CYP3A4 (evidence found), reversibility (CYP3A4): largely irreversible
- Substrate for P-gp (P-gp [2]): substrate
- Inhibitor for P-gp (P-gp [3]): inhibitor
- Substrate for BCRP [4]: not for breast cancer resistance protein (BCRP)
- Inhibitor for BCRP [5]: not for breast cancer resistance protein (BCRP)
- Induction of human CYP2B6 (human CYP2B6): potential inducer
- Induction of human CYP3A4 (human CYP3A4): potential inducer
- Inhibition of CYP2C8 (CYP2C8): mild inhibitor
- Inhibition of CYP2C9 (CYP2C9): mild inhibitor
- Inhibition of CYP2C19 (CYP2C19 [6]): mild inhibitor
- Inhibition of CYP2D6 (CYP2D6): mild inhibitor
- Inhibition of CYP3A4/5 (CYP3A4/5): mild inhibitor
- Inhibition of BSEP [7]: mild inhibitor
- Inhibition of OATP1B1 [8]: mild inhibitor
- Inhibition of OAT3 [9]: mild inhibitor
- Inhibition of OCT2 [10]: mild inhibitor
- Inhibition of UGT1A3 [11]: mild inhibitor
- Inhibition of UGT1A4 [12]: mild inhibitor
- Inhibition of UGT1A9 [13]: mild inhibitor
- Inhibition of MRP2 [14]: does not appear to be an inhibitor
- Inhibition of MRP3 (MRP3): does not appear to be an inhibitor
- Inhibition of OATP1B3 (OATP1B3): does not appear to be an inhibitor
- Inhibition of OAT1 (OAT1): does not appear to be an inhibitor
